The experiment deals with CD2F1 mice, L1210 leukemia ip, survival T/C. The experiment is described as follows: NCI In Vivo Anticancer Drug Screen. Data for tumor model L1210 Leukemia (intraperitoneal) in CD2F1 (CDF1) mice. Conditions: higher = longer survival. Summed up: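 In this screen, transplantable tumors were grown in mice given either the compound or its vehicle. Results were expressed as the treated measurement relative to the control measurement.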

Where [1] appears, read: endpoint: mean survival time, dose: 100.0 mg/kg/injection, schedule: Q01DX009 (ip), vehicle: saline with Tween-80.
[2] abbreviates: endpoint: mean survival time, dose: 200.0 mg/kg/injection, schedule: Q01DX009 (ip), vehicle: saline with Tween-80.
[3] abbreviates: endpoint: mean survival time, dose: 400.0 mg/kg/injection, schedule: Q01DX009 (ip), vehicle: saline with Tween-80.
Setting [4] is: endpoint: mean survival time, dose: 100.0 mg/kg/injection, schedule: Q01DX001 (ip), vehicle: saline.
Where [5] appears, read: endpoint: mean survival time, dose: 200.0 mg/kg/injection, schedule: Q01DX001 (ip), vehicle: saline.
Where [6] appears, read: endpoint: mean survival time, dose: 400.0 mg/kg/injection, schedule: Q01DX001 (ip), vehicle: saline.
[7] abbreviates: endpoint: mean survival time, dose: 50.0 mg/kg/injection, schedule: Q01DX009 (ip), vehicle: saline with Tween-80.
Setting [8] is: endpoint: mean survival time, dose: 100.0 mg/kg/injection, schedule: Q04DX003 (ip), vehicle: saline with Tween-80.
[9] abbreviates: endpoint: mean survival time, dose: 200.0 mg/kg/injection, schedule: Q04DX003 (ip), vehicle: saline with Tween-80.
Where [10] appears, read: endpoint: mean survival time, dose: 400.0 mg/kg/injection, schedule: Q04DX003 (ip), vehicle: saline with Tween-80.
Where [11] appears, read: endpoint: mean survival time, dose: 400.0 mg/kg/injection, schedule: Q01DX001 (ip), vehicle: saline with Tween-80.
Setting [12] is: endpoint: mean survival time, dose: 100.0 mg/kg/injection, schedule: Q04DX002 (ip), vehicle: saline with Tween-80.
Where [13] appears, read: endpoint: mean survival time, dose: 200.0 mg/kg/injection, schedule: Q04DX002 (ip), vehicle: saline with Tween-80.
The mark [14] stands for this setting: endpoint: mean survival time, dose: 400.0 mg/kg/injection, schedule: Q04DX002 (ip), vehicle: saline with Tween-80.

The values below come from PubChem BioAssay AID256 (DTP/NCI, 2004).

“And” between values parts separate entries of the source, which are not always exact repeats. Equal entries are not always repeated. Inconclusive results and toxic doses are left out.

For `C[C@@]12C(=O)OC(=O)[C@]1(C)[C@H]1CC[C@@H]2O1`, the T/C is, setting by setting: (endpoint: median survival time, dose: 0.06 mg/kg/injection, schedule: Q01DX009 (ip), vehicle: Klucel (hydroxypropylcellulose) (HPC)) 110 % of control; (endpoint: median survival time, dose: 0.12 mg/kg/injection, schedule: Q01DX009 (ip), vehicle: Klucel (hydroxypropylcellulose) (HPC)) 102 % of control; (endpoint: median survival time, dose: 0.25 mg/kg/injection, schedule: Q01DX009 (ip), vehicle: Klucel (hydroxypropylcellulose) (HPC)) 103 % of control; (endpoint: median survival time, dose: 0.5 mg/kg/injection, schedule: Q01DX009 (ip), vehicle: Klucel (hydroxypropylcellulose) (HPC)) 104 % of control; (endpoint: median survival time, dose: 1.0 mg/kg/injection, schedule: Q01DX009 (ip), vehicle: Klucel (hydroxypropylcellulose) (HPC)) 92 % of control.
As to `CC(=O)Nc1cccc(C(C)=O)c1[N+](=O)[O-]`, the T/C under setting [1] is 102 % of control, the T/C under setting [2] is 97 % of control and the T/C under setting [3] is 93 % of control.
For the compound `CC(=O)N(CC(C)C)N=O`, the T/C by setting is: under setting [4], 95 % of control; (endpoint: mean survival time, dose: 100.0 mg/kg/injection, schedule: Q04DX003 (ip), vehicle: saline) 102 % of control; under setting [5], 97 % of control; (endpoint: mean survival time, dose: 200.0 mg/kg/injection, schedule: Q04DX003 (ip), vehicle: saline) 97 % of control; under setting [6], 89 % of control; (endpoint: mean survival time, dose: 400.0 mg/kg/injection, schedule: Q04DX003 (ip), vehicle: saline) 94 % of control.
Turning to `COc1cc(Cl)ccc1NC(=O)OCCOc1ccc(C(C)(C)C)cc1`, the T/C was 103 % of control under setting [7], 95 % of control under setting [1] and 95 % of control under setting [2].
`CC(C)(C)N=C1OC(=O)c2ccccc21`: the T/C reads like this: under setting [8], 101 % of control; under setting [9], 101 % of control; under setting [10], 101 % of control.
Regarding `COc1cc(NS(C)(=O)=O)ccc1Nc1c2ccc(Cl)cc2nc2c(OC)cccc12`, the T/C by setting is: (endpoint: mean survival time, dose: 12.5 mg/kg/injection, schedule: Q01DX009 (ip), vehicle: saline with Tween-80) 106 % of control; (endpoint: mean survival time, dose: 66.0 mg/kg/injection, schedule: Q04DX003 (ip), vehicle: saline with Tween-80) 238 % of control; (endpoint: mean survival time, dose: 100.0 mg/kg/injection, schedule: Q04DX003 (ip), vehicle: saline sonified) 168 % of control; under setting [8], 273 % of control; (endpoint: mean survival time, dose: 150.0 mg/kg/injection, schedule: Q04DX003 (ip), vehicle: saline with Tween-80) 88 % of control; (endpoint: mean survival time, dose: 200.0 mg/kg/injection, schedule: Q04DX003 (ip), vehicle: saline sonified) 154 % of control.
As for `CSc1nc(Cl)cc(Sc2nc(N)nc3nc[nH]c23)n1`, the T/C is, setting by setting: (endpoint: mean survival time, dose: 18.75 mg/kg/injection, schedule: Q01DX009 (ip), vehicle: Klucel (hydroxypropylcellulose) (HPC)) 173 % of control; (endpoint: mean survival time, dose: 37.5 mg/kg/injection, schedule: Q01DX009 (ip), vehicle: Klucel (hydroxypropylcellulose) (HPC)) 175 % of control; (endpoint: mean survival time, dose: 150.0 mg/kg/injection, schedule: Q01DX009 (ip), vehicle: Klucel (hydroxypropylcellulose) (HPC)) 97 % of control.
With `O=C(Nc1ccccc1)OC1CCCCC1OC(=O)Nc1ccccc1` (configuration not stated), under setting [11], the T/C is 86 % of control.
Regarding `S=C1CCCCN1`, the T/C is 96 % of control (endpoint: median survival time, dose: 25.0 mg/kg/injection, schedule: Q01DX009 (ip), vehicle: distilled water + alcohol); 94 % of control (endpoint: median survival time, dose: 50.0 mg/kg/injection, schedule: Q01DX009 (ip), vehicle: distilled water + alcohol); 106 % of control (endpoint: median survival time, dose: 100.0 mg/kg/injection, schedule: Q01DX009 (ip), vehicle: distilled water + alcohol); 112 % of control (endpoint: median survival time, dose: 200.0 mg/kg/injection, schedule: Q01DX009 (ip), vehicle: distilled water + alcohol).
Consider `Cc1cc(C)c(CN)cc1C`, for which the T/C by setting is: (endpoint: mean survival time, dose: 5.0 mg/kg/injection, schedule: Q01DX009 (ip), vehicle: saline with Tween-80) 96 % of control; (endpoint: mean survival time, dose: 10.0 mg/kg/injection, schedule: Q01DX009 (ip), vehicle: saline with Tween-80) 105 % of control; (endpoint: mean survival time, dose: 20.0 mg/kg/injection, schedule: Q01DX009 (ip), vehicle: saline with Tween-80) 92 % of control.
Regarding `CCCCCCCCCCCCCCCCCc1nnc(-c2ccccc2O)o1`, the T/C runs as follows: (endpoint: mean survival time, dose: 25.0 mg/kg/injection, schedule: Q04DX002 (ip), vehicle: saline with Tween-80) 100 % of control; (endpoint: mean survival time, dose: 50.0 mg/kg/injection, schedule: Q04DX002 (ip), vehicle: saline with Tween-80) 103 % of control; under setting [12], 108 % of control; under setting [13], 112 % of control.
As for `O=S(=O)(c1cc(Cl)ccc1O)c1cc(Cl)ccc1O`, the T/C is 103 % of control under setting [4], 100 % of control under setting [5] and 100 % of control under setting [6].
Take `Nc1ncnc2c1c1c(=O)[nH]c(=S)[nH]c1n2C1OC(CO)C(O)C1O` (configuration not stated): the T/C reads like this: (endpoint: mean survival time, dose: 25.0 mg/kg/injection, schedule: Q01DX005 (ip), vehicle: water) 94 % of control; (endpoint: mean survival time, dose: 50.0 mg/kg/injection, schedule: Q01DX005 (ip), vehicle: water) 100 % of control; (endpoint: mean survival time, dose: 100.0 mg/kg/injection, schedule: Q01DX005 (ip), vehicle: water) 103 % of control; (endpoint: mean survival time, dose: 200.0 mg/kg/injection, schedule: Q01DX005 (ip), vehicle: water) 105 % of control; (endpoint: mean survival time, dose: 400.0 mg/kg/injection, schedule: Q01DX005 (ip), vehicle: water) 114 % of control.
On to `COc1ccc(NC(=O)Nc2cc(OC)c(Cl)cc2OC)cc1`, for which the T/C is 96 % of control under setting [12], 89 % of control under setting [13] and 89 % of control under setting [14].
As for `C[N+](C)(CCO)Cc1ccccc1`, the T/C reads like this: (endpoint: mean survival time, dose: 25.0 mg/kg/injection, schedule: Q01DX009 (ip), vehicle: saline with Tween-80) 102 % of control; (endpoint: mean survival time, dose: 25.0 mg/kg/injection, schedule: Q04DX003 (ip), vehicle: saline with Tween-80) 97 % of control; under setting [7], 105 % of control; (endpoint: mean survival time, dose: 50.0 mg/kg/injection, schedule: Q04DX003 (ip), vehicle: saline with Tween-80) 100 % of control; under setting [1], 105 % of control; under setting [8], 96 % of control and 101 % of control.
Consider `COC(=O)CC(=O)C12OC1CC1C3CC=C4CC(OC(C)=O)CCC4(C)C3CCC12C` (configuration not stated), for which the T/C is 101 % of control (endpoint: mean survival time, dose: 75.0 mg/kg/injection, schedule: Q04DX003 (sc), vehicle: steriod suspending solution); 103 % of control (endpoint: mean survival time, dose: 150.0 mg/kg/injection, schedule: Q04DX003 (sc), vehicle: steriod suspending solution); 97 % of control (endpoint: mean survival time, dose: 300.0 mg/kg/injection, schedule: Q04DX003 (sc), vehicle: steriod suspending solution).
Turning to `Cc1cc(C2(c3cc(C)c(O)c(C(=O)O)c3)OS(=O)(=O)c3ccccc32)cc(C(=O)O)c1O`, the T/C runs as follows: under setting [4], 104 % of control; under setting [5], 98 % of control; under setting [6], 106 % of control.
In the case of `c1ccc2c(CC[n+]3cccc(C4OCCO4)c3)c[nH]c2c1`, the T/C is 100 % of control (endpoint: mean survival time, dose: 12.5 mg/kg/injection, schedule: Q01DX009 (ip), vehicle: saline); 92 % of control (endpoint: mean survival time, dose: 12.5 mg/kg/injection, schedule: Q04DX003 (ip), vehicle: saline); 105 % of control (endpoint: mean survival time, dose: 25.0 mg/kg/injection, schedule: Q01DX009 (ip), vehicle: saline); 96 % of control (endpoint: mean survival time, dose: 25.0 mg/kg/injection, schedule: Q04DX003 (ip), vehicle: saline); 100 % of control (endpoint: mean survival time, dose: 50.0 mg/kg/injection, schedule: Q01DX009 (ip), vehicle: saline); 89 % of control (endpoint: mean survival time, dose: 50.0 mg/kg/injection, schedule: Q04DX003 (ip), vehicle: saline).
In the case of `O=C(O)c1ccc(NC(=S)NC(=O)c2cccc(Br)c2)cc1`, the T/C runs as follows: (endpoint: mean survival time, dose: 100.0 mg/kg/injection, schedule: Q01DX001 (ip), vehicle: saline with Tween-80) 97 % of control; under setting [1], 95 % of control and 97 % of control; under setting [12], 95 % of control; under setting [8], 100 % of control; (endpoint: mean survival time, dose: 200.0 mg/kg/injection, schedule: Q01DX001 (ip), vehicle: saline with Tween-80) 88 % of control and 101 % of control; under setting [2], 95 % of control and 101 % of control. In addition, the T/C under setting [13] was 94 % of control and 103 % of control; the T/C under setting [9] was 90 % of control; the T/C under setting [11] is 92 % of control and 95 % of control; the T/C under setting [3] was 86 % of control; the T/C under setting [14] is 97 % of control and 106 % of control; the T/C under setting [10] is 93 % of control.
